Assay: gradient 5% acetonitrile 3 min, to 50% in 2 min, to 85% in 15 min, held 3 min, 100 µL/min
Conditions: column: Zorbax Extend-C18 2.1 x 50 mm; eluents: water / acetonitrile, 0.1% formic acid
Method in brief: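 Retention times of pure standards were taken from adduct peaks that were selected by computer and manually inspected. Over 3 months, mixtures of ~100 molecules were run by HPLC–quadrupole time-of-flight mass spectrometry in positive and negative ionization mode. The Zorbax Extend-C18 column (2.1 × 50 mm, 1.8 μm) ran at 100 μL/min in water and acetonitrile, each containing 0.1% formic acid, with 40 μL dead volume and 900 μL dwell volume.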

Row | RP-LC retention time [s] | Structure (SMILES)
1 | 657 | O=C(O)c1nnn(-c2ccccc2F)c1-c1ccccn1
2 | 758 | CCCn1cc(C(=O)NCCCN(C)C)c(S(=O)(=O)N2CCN(c3cccc(Cl)c3)CC2)n1
3 | 965 | CC(C)c1cccc2sc(NC(=O)C3CCCN(S(C)(=O)=O)C3)nc12 (configuration not stated)
4 | 623 | CN(CCc1noc(-c2ccc(C(=O)NCCCN3CCCC3)cc2)n1)C(=O)c1ccc(F)cc1
5 | 742 | Cc1ccc(Nc2nc(-c3cccnc3)nc3ccccc23)cc1
6 | 1050 | Cc1nc2cc(-c3noc(-c4ccccc4)n3)ccc2o1
7 | 910 | O=C(NC1CCCC1)C1CCCN(S(=O)(=O)Cc2ccc(Cl)cc2)C1 (configuration not stated)
8 | 640 | Cn1nc(C(=O)N2CCOCC2)c2c1CN(C(=O)Cc1ccsc1)C2
9 | 1150 | O=C(C1CCN(S(=O)(=O)c2cc(-c3noc(C4CCC4)n3)cs2)CC1)N1CCc2ccccc21
10 | 855 | CCOc1ccc(NC(=O)N2CCCC(C)(C(=O)NCc3ccccc3C)C2)cc1 (configuration not stated)
11 | 772 | CCc1ccc(S(=O)(=O)N2CCC(n3cnnc3C3CC3)CC2)cc1
12 | 618 | COc1ccc(C(=O)Nc2cnc(N3CCOCC3)nc2)cc1
13 | 790 | O=C(NC1CC1)C1CCN(S(=O)(=O)c2cc(-c3noc(C4CC4)n3)cs2)CC1
14 | 725 | CC(C)CCNC(=O)N1CC(c2nc(-c3cccnc3)no2)C2(CCOCC2)C1 (configuration not stated)
15 | 747 | CCn1cnc(S(=O)(=O)N2CCCC(C(=O)N3CCN(c4ccccc4)CC3)C2)c1 (configuration not stated)
16 | 806 | COc1ccc(-c2cc(C(=O)N3CCN(c4c(C)n(C)c(=O)n(C)c4=O)CC3)c3ccccc3n2)cc1
17 | 723 | CCNC(=O)c1csc(N2CCCC2)n1
18 | 765 | CCC(=O)N1CCc2c(C(=O)NC3CCCC3)cccc21

Row | RP-LC retention time [s] | Structure (SMILES)
19 | 838 | Cc1cccc(-c2noc(Cn3ccn(-c4ccccc4)c(=O)c3=O)n2)c1
20 | 895 | O=c1[nH]c2ccccc2nc1-c1cc(Cl)ccc1NS(=O)(=O)c1ccccc1
21 | 677 | COc1cccc(NC(=O)Nc2c(-c3ccc(F)cc3)nc3ccccn23)c1
22 | 754 | Cc1ccc2ncn(C3CCN(C(=O)Nc4ccccc4C)CC3)c(=O)c2c1
23 | 1000 | O=C(NCc1cccc(C(F)(F)F)c1)c1csc(C(=O)NC2CCCC2)n1
24 | 1080 | CSc1cccc(NC(=O)N2CCCC2c2nc(-c3cccc(C)c3)no2)c1 (configuration not stated)
25 | 801 | O=C(Nc1ccc2scnc2c1)c1ccc(Cl)cc1Cl
26 | 810 | CCN(CC)C(=O)c1cnc2snc(C)c2c1N1CCC(C(=O)Nc2cc(OC)c(OC)c(OC)c2)CC1
27 | 973 | Cc1ccc(C(=O)Nc2nc(-c3ccccc3)cs2)o1
28 | 602 | CC(C)n1c(N2CCN(C(=O)c3cccnc3)CC2)cc(=O)n(C(C)C)c1=O
29 | 808 | Cc1ccccc1NC(=O)NCCc1cn(CC(C)C)c2ncccc12
30 | 698 | COCCNc1c(-c2cccc(OC)c2)nc2sc(C(=O)N(C)C)c(C)n12
31 | 726 | O=C(Nc1ccc(-n2cnc(C(=O)N3CCN(c4ccccc4)CC3)c2)nc1)C1CC1
32 | 972 | O=C1C(O)=C(S(=O)(=O)c2ccc(Cl)cc2)C(c2ccc(F)cc2)N1Cc1ccco1 (configuration not stated)
33 | 1000 | COc1ccc(-c2noc(C3(NC(=O)c4ccco4)CCCCC3)n2)cc1
34 | 1010 | CCC(C)(C)NS(=O)(=O)c1cc(-c2nc(C)cs2)n(C)c1C
35 | 950 | CCN1C(=O)c2cccnc2Sc2cc(NC(=O)c3ccc(C(F)(F)F)cc3)ccc21
36 | 654 | CN1C(=O)c2cccn2CC1C(=O)NCc1cccs1 (configuration not stated)

Row | Structure (SMILES) | RP-LC retention time [s]
37 | COc1cccc(CN2CC[C@@H]3CN(S(C)(=O)=O)[C@@H]3C2)n1 | 553

Reference: the METLIN SMRT retention time set (Domingo-Almenara et al. 2019)
